For one assay, the system named is H460 cancer cells. Description: H460 proliferation assay in the presence of the specific AKR1C3 enzyme inhibitor TH-3021. It is filed as cell-based, human. The conditions noted are these: AKR1C3 inhibitor TH-3021 at 3 micromolar, added two hours before compound treatment, read-out: IC50 (nM) obtained when the AKR1C3 inhibitor TH-3021 was added. As for the experimental part:
(§1) Specifically, exponentially growing cells were seeded at a density of 4×10^3 cells per well in a 96 well plate and incubated at 37° C. in 5% CO2, 95% air and 100% relative humidity for 24 hours prior to addition of test compounds. Compounds were solubilized in 100% DMSO at 200 times the desired final test concentration. At the time of drug addition, compounds were further diluted to 4 times the desired final concentration with complete medium. Aliquots of 50 μl of compound at specified concentrations were added to microtiter wells already containing 150 μl of medium, resulting in the final drug concentration reported. After drug addition, the plates were incubated for an additional 2 hours at 37° C., 5% CO2, 95% air, and 100% relative humidity, then the drug was washed off and fresh medium was added and the plates were incubated for addition 70 hrs at 37° C., 5% CO2, 95% air and 100% relative humidity. At the end of this incubation, the viable cells were quantified using the AlamarBlue assay.
Similarly, in order to further verify that the compounds are activated by human AKR1C3 ([…] family 1 member C3), the effect of some of the compounds on the proliferation of H460 cancer cells was tested in the presence of a specific AKR1C3 enzyme inhibitor (at 3 micromolar concentration). The inhibitor-added compound solution was added to the cell culture two hours before the treatment with the compound. The inhibitor used was compound 36, i.e.,
[drawing 17] (TH-3021) in Flanagan et al., Bioorganic and Medicinal Chemistry (2014), pages 962-977.

Assay [1] relates to H460 non-small cell lung cancer human tumor cell line. Description: In vitro human tumor cell line cytotoxicity (proliferation) assay, H460. Format: cell-based. The conditions noted are these: NCI-H460, H460 cells, 2 hrs compound exposure, wash, additional 70 hrs incubation, AlamarBlue. As for the experimental part: In vitro human tumor cell line cytotoxicity assays.
In vitro proliferation data on the H460 non-small cell lung cancer human tumor cell line is reported below in the compound table.
as §1
(Resazurin is reduced to fluorescent resorufin, in cell work by metabolically active cells.)

A word on the IC50: it is the concentration that inhibits the measured activity by half. With `O=C(c1ccc(Oc2cc(C(OP(=O)(N3CC3)N3CC3)C(F)(F)F)ccc2[N+](=O)[O-])cc1)N1CCCCC1` (stereo not drawn) [Compound No. 28], the concentration for half-maximal inhibition (IC50) came to 649 nM with H460 cancer cells and 2.36 nM in assay [1]. The like results for `O=[N+]([O-])c1ccc(C(OP(=O)(N2CC2)N2CC2)C(F)(F)F)cc1Oc1ccc(-c2ccc(F)cc2)nc1` (stereo not drawn) [Compound No. 18] were, in that order, greater than 1000 nM and 35.5 nM. Consider `O=C(c1cccc(Oc2cc(C(OP(=O)(N3CC3)N3CC3)C(F)(F)F)ccc2[N+](=O)[O-])c1)N1CCCC1` (stereo not drawn) [Compound No. 23], for which the half-maximal inhibitory concentration (IC50) was found to be 795 nM in the assay with H460 cancer cells and 6.04 nM in assay [1]. In the case of `Cn1ncc2cc(Oc3cc(C(OP(=O)(N4CC4)N4CC4)C(F)(F)F)ccc3[N+](=O)[O-])ccc21` (stereo not drawn) [Compound No. 43], the IC50 in the assay with H460 cancer cells worked out at 102 nM; in assay [1], 30.4 nM. For `O=C(c1ccc(Oc2cc(C(OP(=O)(N3CC3)N3CC3)C(F)(F)F)ccc2[N+](=O)[O-])cc1)N1CCC(C(F)(F)F)CC1` (stereo not drawn) [Compound No. 29], the IC50 in the assay on H460 cancer cells was greater than 1000 nM; in assay [1], 60.1 nM.

With `O=[N+]([O-])c1ccc(COc2c(F)cc(COP(=O)(N3CC3)N3CC3)cc2F)cc1Oc1ccc(C(F)(F)F)cc1` [Compound No. 4], the IC50 is greater than 1000 nM in the assay with H460 cancer cells and 9.31 nM in assay [1].

On to `O=[N+]([O-])c1ccc(C(OP(=O)(N2CC2)N2CC2)C(F)(F)F)cc1Oc1ccc(-c2ccc(F)cc2)cc1` (stereo not drawn) [Compound No. 9], for which the IC50 in the assay with H460 cancer cells is greater than 1000 nM; in assay [1], 18.4 nM. `CN(C)C(=O)c1ccc(Oc2cc(C(OP(=O)(N3CC3)N3CC3)C(F)(F)F)ccc2[N+](=O)[O-])cc1` (stereo not drawn) [Compound No. 27]: the 50% inhibitory concentration (IC50) in the assay on H460 cancer cells was greater than 1000 nM; in assay [1] it was 9.32 nM.

On to `CN(C)C(=O)c1cccc(Oc2cc(C(OP(=O)(N3CC3)N3CC3)C(F)(F)F)ccc2[N+](=O)[O-])c1` (stereo not drawn) [Compound No. 6], for which the IC50 with H460 cancer cells turned out to be 813 nM; in assay [1], 1.27 nM. The like results for `N#Cc1ccc(Oc2cc(COc3c(F)cc(COP(=O)(N4CC4)N4CC4)cc3F)ccc2[N+](=O)[O-])cc1` [Compound No. 37] were, in that order, 136 nM and 12.3 nM. For `O=[N+]([O-])c1ccc(C(OP(=O)(N2CC2)N2CC2)C(F)(F)F)cc1Oc1ccc(C2CCCC2)cc1` (stereo not drawn) [Compound No. 47], in assay [1], the midpoint of inhibition, the IC50, lay at 8.13 nM. On to `O=[N+]([O-])c1ccc(C(OP(=O)(N2CC2)N2CC2)C(F)(F)F)cc1Oc1ccc2ncccc2c1` (stereo not drawn) [Compound No. 40], for which the 50% inhibitory concentration (IC50) in the assay with H460 cancer cells is greater than 1000 nM; in assay [1], 14.7 nM.

As to `O=[N+]([O-])c1ccc(C(OP(=O)(N2CC2)N2CC2)C(F)(F)F)cc1Oc1ccc(-c2ccccc2)cc1` (stereo not drawn) [Compound No. 44], the figures for the IC50 (in the assay on H460 cancer cells; in assay [1]) were greater than 1000 nM and 9.42 nM, respectively. The like results for `O=[N+]([O-])c1ccc(C(OP(=O)(N2CC2)N2CC2)C(F)(F)F)cc1Oc1cccc(-c2ccc(F)cc2)c1` (stereo not drawn) [Compound No. 14] were, in that order, greater than 1000 nM and 30 nM. Consider `CN(C(=O)c1ccc(Oc2cc(C(OP(=O)(N3CC3)N3CC3)C(F)(F)F)ccc2[N+](=O)[O-])cc1)c1ccccc1` (stereo not drawn) [Compound No. 41], for which the IC50 was 341 nM with H460 cancer cells and 2.54 nM in assay [1]. For `CN(C)C(=O)c1ccc(Oc2cc(COc3cc(F)c(COP(=O)(N4CC4)N4CC4)cc3Cl)ccc2[N+](=O)[O-])cc1` [Compound No. 34], the IC50 in the assay on H460 cancer cells was greater than 1000 nM; in assay [1], 38.5 nM. The like results for `O=C(c1cccc(Oc2cc(COc3c(F)cc(COP(=O)(N4CC4)N4CC4)cc3F)ccc2[N+](=O)[O-])c1)N1CC(F)C1` [Compound No. 36] were, in that order, 238 nM and less than 4.37 nM.

Regarding `O=[N+]([O-])c1ccc(C(OP(=O)(N2CC2)N2CC2)C(F)(F)F)cc1Oc1ccc(F)c(C(F)(F)F)c1` (stereo not drawn) [Compound No. 12], the IC50 is greater than 1000 nM in the assay on H460 cancer cells and 87.3 nM in assay [1]. In assay [1], `O=[N+]([O-])c1ccc(C(OP(=O)(N2CC2)N2CC2)C(F)(F)F)cc1Oc1ccc(C2CCCCC2)cc1` (stereo not drawn) [Compound No. 48] returned an IC50 of 3.7 nM.
